From patent US20160022872A1, “CELL-BASED COMPOSITIONS, CELL-BASED BANDAGE DEVICES AND SYSTEMS AND METHODS OF TREATMENT THEREWITH” (UNIVERSITY OF PITTSBURGH-OF THE COMMONWEALTH SYSTEM OF …, priority 2013, published 2016)
“Also recorded” adds a separate entry of the source. Like-named read-outs stand apart in the source and are kept apart here.

Key:
[1] = test system: imhMSC and prhMSC; settings: for toxic effect on MSC (caspase3 activation without FasL): MSC on Collagen I and TNC, no FasL; for effect on survival advantage of TNC and Collagen I in the presence of FasL: prhMSC on Collagen I and TNC, inhibitor 30 minutes prior to and during 8 hours FasL; for cell death / caspase3 activation (FLICA): FasL or CHX and FasL, 8 hours (imhMSC) or 12 hours (prhMSC)
Experimental: MSCs are most susceptible to cell death via the Fas death pathway. […] Cells were also treated with a low concentration of the protein synthesis inhibitor cycloheximide (CHX) in addition to FasL. Cycloheximide, being a protein synthesis inhibitor, increases cell stress, imitating the starvation stress seen in vivo in a wound setting.
After preparation of coated surfaces and prior to seeding of MSC, neutralizing antibodies to the EGFL and FNL domains were added for 24 hours Immortalized hMSC were then seeded for 24 hours, kept treated or untreated with FasL for 8 hours, followed by a FLICA assay to test for caspase3 activation.
We next studied whether TNC contributes to survival of MSCs by sequestering FasL and prevention of FasL from binding its receptor Fas on MSC. We grew MSCs inside two cloning cylinders placed in wells of a 6-well dish, enclosing areas without any ECM, or with Collagen I and TNC, on which imhMSC were grown. One well had Collagen I and TNC coating surrounding the cloning cylinders, covered with media and FasL. The second well had only media with FasL surrounding the cloning cylinders, with no TNC.
The inhibitors were present during the entire 8 hours of FasL treatment, after which a FLICA assay was performed.

[2] = test system: Erk; assay: immunofluorescence for phospho-Erk; format: cell-based, human; settings: imhMSC, 0, 30 and 60 minutes
Experimental: We examined that of Erk Immortalized hMSC were plated on surfaces with Collagen I alone or Collagen I and TNC for 24 hours. After 24 hours, (considered 0 minute), immunofluorescence for phospho-Erk (green fluorescence) was tested either with or without the EGFR inhibitor PD153035.

[3] = test system: imhMSC and prhMSC; assay: MSC proliferation on extracellular matrix coatings; format: cell-based, human; settings: 96 hours post-seeding
Source text: During wound healing, endogenous MSC proliferation and differentiation are temporally distinct events. […] We tested if the extracellular matrix or ECM factors had any influence on MSC proliferation.

[4] = test system: MSC; assay: MSC differentiation on coated surfaces (Von Kossa staining, adipocyte formation); format: cell-based, human
Source text: We then studied whether TNC by itself, in the absence of specific differentiation cues, promotes MSC differentiation. We examined osteoblast or adipose cell formation from MSC grown on TNC and Collagen (Col I), in the presence of either proliferation or differentiation media. […] The matrix mix of TNC and Collagen I also did it interfere with differentiation.

[5] = test system: EGFR; assay: immunofluorescence for phospho-EGFR and EEA1; format: cell-based, human
Experimental: Upon determining that TNC provided a survival effect on MSC in the presence of FasL, and that this mapped to the EGFL, we studied if Tenascin C was able to activate EGFR on the surface of MSC and if this activation was sustained. MSCs have low levels of EGFR, which may limit activation by the ultra-low affinity EGFL. In a number of studies, immortalized hMSC were plated on surfaces with Collagen I alone or Collagen I and TNC for 24 hours. After 24 hours, (considered 0 minute), immunofluorescence for phospho-EGFR (red fluorescence) and the early endosome marker EEA1 (green fluorescence) was done on these samples. […] Immortalized hMSC seeded on Collagen I were treated with EGF, the prototypal EGFR ligand, known to cause EGFR internalization for 15, 30 and 60 minutes prior to fixation, to induce phosphorylation of EGFR. At the same time points, immunofluorescence was done on cells grown on Collagen I and TNC.

[6] = test system: MSC; assay: inverted centrifugation assay of MSC adhesiveness on coated surfaces; format: cell-based, human; settings: 2 hours post-seeding
Experimental: Tenascin-C or TNC may reduce the number of focal adhesions and decrease cell adhesiveness in several cell types. To test for MSC adhesiveness on TNC, an inverted centrifugation assay was performed 2 hours post-seeding MSC on […] and the number of cells attached after centrifugation was compared to number of cells attached on a similarly coated surface that had not undergone centrifugation. […] To increase adhesiveness of cells on TNC we coated mixed Collagen I, a matrix naturally occurring in the in vivo bone environment and one that promotes MSC attachment and spreading, in a 1:1 ratio with TNC for coating substrates. […] In a number of studies hereof, a combination of Collagen I and TNC was used to increase TNC adherence to cells.

[7] = test system: MSC; assay: flow cytometric quantification of FITC/HLA+ cells, MSC survival in wound bed; format: in vivo, mouse; settings: days 3, 7 and 21; WT and KO mice
Source text: Male and Female FVB (Friend Virus B-Type) and C57BL/6 mice, between 7-9 weeks of age, were used in a number of studies. After shaving the hair on the back of the mice, 8 mm punch biopsies were created. Wounds were either left untreated or treated with commercially available NEW-SKIN® (a liquid bandage or wound protective barrier available from J&J of New Brunswick, N.J.), PEG-Polymer, PEG-Polymer+TNC, or PEG-Polymer+TNC−MSC. […]
Flow cytometric quantification of FITC/HLA+cells was used to detect MSC survival in the wound bed. […]
After shaving the hair on the back of the mice 8 mm punch biopsies were created. […] Animals were euthanized by CO2 inhalation and the wounds assessed. […] Each wound was measured and then removed from the animal, with unwounded skin taken from the contralateral dorsum as a control.
Flow Cytometry. Twelve-millimeter punch biopsies of the wound and 12-mm punch biopsies of unwounded regions were isolated for quantification of MSC engraftment in wounded skin at days 3, 7, 14, and 21. […] Flow cytometry was performed on an LSR II Cytometer (a flow cytometer system available from BD Biosciences of Franklin Lakes, N.J.) and subsequently analyzed using FOWJO® digital FACS software (available from Tree Star, Inc. of Ashland, Oreg.).

## O=c1cc(N2CCOCC2)oc2c(-c3ccccc3)cccc12 [LY294002, reference compound]
[1]
  toxic effect on MSC (caspase3 activation without FasL): did not have a toxic effect on cells

## COc1cccc(-c2cc(=O)c3ccccc3o2)c1N [PD98059, reference compound]
[1]
  toxic effect on MSC (caspase3 activation without FasL): did not have a toxic effect on cells
  effect on survival advantage of TNC and Collagen I in the presence of FasL: blocked the survival advantage

## COc1cc2ncnc(Nc3cccc(Br)c3)c2cc1OC [PD153035, reference compound]
[1]
  toxic effect on MSC (caspase3 activation without FasL): did not have a toxic effect on cells
  effect on survival advantage of TNC and Collagen I in the presence of FasL: blocked the survival advantage
[2]
  phospho-Erk activation: reduced but not completely inhibited

## Collagen I: a matrix naturally occurring in the in vivo bone environment that promotes MSC attachment and spreading
[3]
  MSC proliferation relative to cell numbers initially plated: promote both imhMSC and prhMSC proliferation
[4]; 30 days in proliferation media
  hydroxyapatite deposition (Von Kossa staining): neither Collagen I by itself nor TNC and Collagen I caused hydroxyapatite deposition
[1]
  cell death / caspase3 activation (FLICA): did not show protection
[1]; listed as Collagen I alone
  cell death / caspase3 activation (FLICA): showed caspase 3 activation
[5]; imhMSC, 24 hours after plating (0 minute)
  phospho-EGFR staining: did not show phospho-EGFR staining
[2]
  phospho-Erk activation: significantly less than that with TNC

## EGF: the prototypal EGFR ligand, known to cause EGFR internalization
[5]; imhMSC, 15, 30 and 60 minutes
  phospho-EGFR staining over time: stained positive for phospho-EGFR after 15 minutes of treatment; also recorded: very little phospho-EGFR signal

## TNC: the matrikine tenascin C, containing EGF-like and fibronectin like repeats
[6]
  MSC adhesiveness: detach from surfaces after inverted centrifugation; also recorded: only half as adhesive as cells on Collagen I
[4]; in the presence of adipogenic inducers
  adipocyte formation: did not prevent adipocyte formation
[4]; in the presence of differentiation media
  osteogenic differentiation: did not interfere with osteogenic differentiation
[4]; on its own, no inducers
  adipocyte formation: did not promote adipocyte formation on its own
[1]
  cell death / caspase3 activation (FLICA): did not show caspase3 activation
[1]; cloning cylinder experiment, imhMSC
  sequestering or neutralizing of FasL: neither sequestering nor neutralizing FasL
[1]; dose response, TUNEL and FLICA staining
  optimal TNC coating to promote MSC survival in the presence of FasL: 1 Lg/cm2
[2]
  phospho-Erk activation: activate phosho-Erk in MSC at 0, 30 and 60 minutes
[7]
  MSC survival in wound bed over time: survive more and longer
